Literature values, collected in patent US8563051B2, “Herbal composition for weight management” (InQpharm Sdn Bhd, priority 2005, dated 2013).
Like-named read-outs stand apart in the source and are kept apart here.

How the values were obtained:
[1] = human clinical weight loss trial
[2] = human clinical trial; blood levels not measured
[3] = tested on: Ehrlich ascites tumor cell; conditions: in vitro
[4] = 8-week human clinical study, 26 subjects
[5] = rodents
[6] = doses in the range of 1 to 5 grams a day

In the case of O=C([O-])CC(O)(C(=O)[O-])C(O)C(=O)[O-].[Ca+2].[K+] (stereo not drawn) [calcium and potassium hydroxycitrate], the weight loss [1] is listed as “shown to be effective”.
For O=C([O-])C[C@@](O)(C(=O)[O-])[C@H](O)C(=O)[O-].O=C([O-])C[C@@](O)(C(=O)[O-])[C@H](O)C(=O)[O-].[Ca+2].[Ca+2].[Ca+2] [calcium salt of hydroxycitric acid], the weight loss [2] is listed as “ineffective for weight loss”.
For C[C@H]1[C@H](C)CC[C@]2(C(=O)O)CC[C@]3(C)C(=CC[C@@H]4[C@@]5(C)C[C@@H](O)[C@H](O)C(C)(C)[C@@H]5CC[C@]43C)[C@H]12 [Corosolic acid, 2-hydroxyursolic acid], the glucose transport activity [3] is given as “stimulate significant glucose transport activity” and the “glucose tolerance and blood sugar levels” value [4] is given as “improved glucose tolerance and improved blood sugar levels”.
In the case of sodium salt of hydroxycitric acid, the “food intake and weight” value [5] is given as “reduce food intake and cause weight loss”.
In the case of O=C(O)CC(O)(C(=O)O)C(O)C(=O)O (single isomer, unassigned; (-)) [HCA, (−)hydroxycitric acid], the safety assessment [6] is listed as “no relevant safety issues”.
